Literature values in patent US20030170318A1, “Fluoride compositions and uses thereof” (priority 2000, published 2003).

Experiments:
[1] = system: Ras/RasGAP complex; conditions: fluoride salt added to mixed Ras and GAP; free fluoride needed in solution
[2] = system: mutant RhoGAP; conditions: arginine to alanine mutant, in the presence of aluminum fluoride
[3] = system: normal cells; conditions: pre, simultaneous and post-treatments; Trenimon-induced chromosomal aberrations
[4] = system: Drosophila; conditions: mutation induced by Trenimon and 1-phenyl-3,3-dimethyltriazene
[5] = children
[6] = system: human leukemia (HL-60) cells
[7] = system: osteosarcoma cell line UMR 106; conditions: 0.5 mM fluoride, UMR 106 cultures

[Be+2].[F-].[F-] [beryllium fluoride, reference compound]
Ras/RasGAP complex formation [1]: readily formed

aluminum fluoride
Ras/RasGAP complex formation [1]: readily formed
hydrolysis of RhoGTP to RhoGDP by mutant RhoGAP [2]: as effective as normal RhoGAP

[F-].[Na+] [sodium fluoride]
frequency of undamaged mitosis [3]: significantly enhanced

[F-].[F-].[Mg+2] [magnesium fluoride]
Ras/RasGAP complex formation [1]: readily formed

F [fluoride]
antimutagenic effect [4]: strong antimutagenic effect
toxic blood plasma fluoride level: about 15 μM
fluoride retained of all fluoride consumed [5]: twenty
cell death [6]: causes cell death
caspase-3 activation leading to apoptosis ([6]; cleaves poly(ADP-ribose) polymerase): activation of caspase-3
apoptosis [7]: induction of apoptosis
cell proliferation [7]: decrease in cell proliferation
